Converted amounts (≈) assume the structure as drawn.
Legend:
Assay type in all cases: cell-based
Alternaria solani = test: MIC serial dilution test, Alternaria solani; conditions: V8 juice medium, 6-12 days at 18-25° C., visual
Botrytis cinerea = test: MIC serial dilution test, Botrytis cinerea; conditions: V8 juice medium, 6-12 days at 18-25° C., visual
Cochliobulus sativus = test: MIC serial dilution test, Cochliobulus sativus; conditions: V8 juice medium, 6-12 days at 18-25° C., visual
[1] = system: Magnaporthe grisea f. sp. Oryzae; conditions: total inhibition of mycelial growth; V8 juice medium; 6-12 days at 18-25° C.; visual
Rhizoctonia solani = test: In vitro fungicidal activity against Rhizoctonia solani (mycelial growth inhibition rating); set-up: key: 0: None; 3: slight; 5: moderate; 7: severe; 9: complete; conditions: 25 ppm; 24-cell-well plates; 3-7 days of incubation
Method: C Evaluation of In vitro Fungicidal Activity against Rhizoctonia solani Test compounds are dissolved in acetone to give a concentration of 25 ppm and added to individual cell walls (24-cell-well-plates, Corning), which were previously filled with a suspension of ground fungal mycelium in a chemically defined growth medium. After 3-7 days of incubation, inhibition of mycelial growth is recorded using the following scale: The data obtained are shown in Table IV. Rating scale [table]

Structure (SMILES): CC(C)Nc1c(-c2cc(F)ccc2C(F)(F)F)c(Cl)nc2ncnn12 [Compound I-1, [5-chloro-6-(5-fluoro-2-trifluoromethyl-phenyl)-[1,2,4]triazolo[1,5-α]pyrimidin-7-yl]-isopropyl-amine]
- MIC (Minimum Inhibitory Concentration) ALTEBO (Alternaria solani): 100 µg/mL (≈ 268 µM)
- MIC (Minimum Inhibitory Concentration) BOTRCI (Botrytis cinerea): 50 µg/mL (≈ 134 µM)
- MIC (Minimum Inhibitory Concentration) COCHSA (Cochliobulus sativus): 25 µg/mL (≈ 66.9 µM)
- MIC (Minimum Inhibitory Concentration) PYRIOR [1]: 1.56 µg/mL (≈ 4.17 µM)
- Rating (inhibition of mycelial growth) (Rhizoctonia solani): 7

Structure (SMILES): Fc1ccc(C(F)(F)F)c(-c2c(Cl)nc3ncnn3c2NC2CCCC2)c1 [Compound I-2, [5-chloro-6-(5-fluoro-2-trifluoromethyl-phenyl)-[1,2,4]triazolo[1,5-α]pyrimidin-7-yl]-cyclopentyl-amine]
- MIC (Minimum Inhibitory Concentration) ALTEBO (Alternaria solani): 3.13 µg/mL (≈ 7.83 µM)
- MIC (Minimum Inhibitory Concentration) BOTRCI (Botrytis cinerea): 25 µg/mL (≈ 62.5 µM)
- MIC (Minimum Inhibitory Concentration) COCHSA (Cochliobulus sativus): 3.13 µg/mL (≈ 7.83 µM)
- MIC (Minimum Inhibitory Concentration) PYRIOR [1]: 0.78 µg/mL (≈ 1.95 µM)
- Rating (inhibition of mycelial growth) (Rhizoctonia solani): 7

Structure (SMILES): Fc1ccc(C(F)(F)F)c(-c2c(Cl)nc3ncnn3c2NC2CC3CCC2C3)c1 (centres unmarked) [Compound I-3]
- MIC (Minimum Inhibitory Concentration) ALTEBO (Alternaria solani): 0.78 µg/mL (≈ 1.83 µM)
- MIC (Minimum Inhibitory Concentration) BOTRCI (Botrytis cinerea): 25 µg/mL (≈ 58.7 µM)
- MIC (Minimum Inhibitory Concentration) COCHSA (Cochliobulus sativus): 6.25 µg/mL (≈ 14.7 µM)
- MIC (Minimum Inhibitory Concentration) PYRIOR [1]: 12.5 µg/mL (≈ 29.4 µM)
- Rating (inhibition of mycelial growth) (Rhizoctonia solani): 5

Structure (SMILES): CCN(CC)c1c(-c2cc(F)ccc2C(F)(F)F)c(Cl)nc2ncnn12 [Compound I-4, N-[5-chloro-6-(5-fluoro-2-trifluoromethyl-phenyl)-[1,2,4]triazolo[1,5-α]pyrimidin-7-yl]-N,N-diethyl-amine]
- MIC (Minimum Inhibitory Concentration) ALTEBO (Alternaria solani): >100 µg/mL
- MIC (Minimum Inhibitory Concentration) BOTRCI (Botrytis cinerea): 25 µg/mL (≈ 64.5 µM)
- MIC (Minimum Inhibitory Concentration) COCHSA (Cochliobulus sativus): 12.5 µg/mL (≈ 32.2 µM)
- MIC (Minimum Inhibitory Concentration) PYRIOR [1]: 0.78 µg/mL (≈ 2.01 µM)
- Rating (inhibition of mycelial growth) (Rhizoctonia solani): 7

Structure (SMILES): CCC(C)Nc1c(-c2cc(F)ccc2C(F)(F)F)c(Cl)nc2ncnn12 (stereo not drawn) [Compound I-5, [5-chloro-6-(5-fluoro-2-trifluoromethyl-phenyl)-[1,2,4]triazolo[1,5-α]pyrimidin-7-yl]-N-(1-methyl-propyl)-amine]
- MIC (Minimum Inhibitory Concentration) ALTEBO (Alternaria solani): 6.25 µg/mL (≈ 16.1 µM)
- MIC (Minimum Inhibitory Concentration) BOTRCI (Botrytis cinerea): 12.5 µg/mL (≈ 32.2 µM)
- MIC (Minimum Inhibitory Concentration) COCHSA (Cochliobulus sativus): 12.5 µg/mL (≈ 32.2 µM)
- MIC (Minimum Inhibitory Concentration) PYRIOR [1]: 0.78 µg/mL (≈ 2.01 µM)
- Rating (inhibition of mycelial growth) (Rhizoctonia solani): 7

Structure (SMILES): Fc1ccc(C(F)(F)F)c(-c2c(Cl)nc3ncnn3c2NCC(F)(F)F)c1 [Compound I-6]
- Rating (inhibition of mycelial growth) (Rhizoctonia solani): 7

Structure (SMILES): Nc1c(-c2cc(F)ccc2C(F)(F)F)c(Cl)nc2ncnn12 [Compound I-7]
- Rating (inhibition of mycelial growth) (Rhizoctonia solani): 0

Structure (SMILES): CC1CCN(c2c(-c3cc(F)ccc3C(F)(F)F)c(Cl)nc3ncnn23)CC1 [Example 5, 5-Chloro-6-(5-fluoro-2-trifluorome-thylphenyl)-7-(4-methyl-piperidin-1-yl)-[1,2,4]triazolo[1,5-α]pyrimidine]
- MIC (Minimum Inhibitory Concentration) ALTEBO (Alternaria solani): 0.2 µg/mL (≈ 0.483 µM)
- MIC (Minimum Inhibitory Concentration) BOTRCI (Botrytis cinerea): 0,78 μg/ml
- MIC (Minimum Inhibitory Concentration) COCHSA (Cochliobulus sativus): 0.78 µg/mL (≈ 1.88 µM)
- MIC (Minimum Inhibitory Concentration) PYRIOR [1]: <0.05 µg/mL
- Rating (inhibition of mycelial growth) (Rhizoctonia solani): 7

Source: patent US6559151B2, “6-(2-trifluoromethyl-phenyl)-triazolopyrimidines” (BASF Aktiengesellschaft, priority 2000, dated 2003)
